By inhibition is commonly meant the share of the control response that was lost under treatment.

Molecules are shown by their SMILES.

For this assay, the target named is T1, M2(S31) (Influenza A virus, UniProt P0DOF5).
T1 construct: expressed in transfected cells; host or cells: CHO cell membranes
T1 sequence (P0DOF5 whole entry): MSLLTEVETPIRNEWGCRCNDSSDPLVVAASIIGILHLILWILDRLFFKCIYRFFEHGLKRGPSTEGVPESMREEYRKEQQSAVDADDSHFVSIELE
In words: Cell-free electrophysiology of M2 proton channels on solid supported membranes (IonGate SURFE2R). Type of assay: biochemical. The settings on record: 25 μM compound, activation by pH jump 7.0 to 6.0, read-out: IonGate_M2(S31)_Screen % Inhibition at 25 μM.
As for `NCC(O)C12CC3CC(CC(C3)C1)C2` (racemic) [Cpd 5], the inhibition at 25 µM lay within 51 to 95%.

Consider `c1ncn(C23CC4CC(CC(C4)C2)C3)n1` [Cpd 1], for which the inhibition at 25 µM fell in the range of 11 to 50%.

In the case of `c1cn(C23CC4CC(CC(C4)C2)C3)cn1` [Cpd 2], the inhibition at 25 µM is 11 to 50%.

Take `Nc1nc(N)n(C23CC4CC(CC(C4)C2)C3)n1` [Cpd 3]: the inhibition at 25 µM lay in the range of 11 to 50%.

Consider `Nc1ccn(C23CC4CC(CC(C4)C2)C3)n1` [Cpd 4], for which the inhibition at 25 µM is 11 to 50%.

With `C1CNC(C23CC4CC(CC(C4)C2)C3)=N1` [Cpd 6], the inhibition at 25 µM is 51 to 95%.

For the compound `NCC12CC3CC(C1)C(O)C(C3)C2` (stereo not shown) [Cpd 7], the inhibition at 25 µM was 11 to 50%.

As for `NCC12CC3CC(C1)C(F)C(C3)C2` (stereo not shown) [Cpd 8, C-(4-Fluoro-adamantan-1-yl)-methylamine], the inhibition at 25 µM lay in the range of 51 to 95%.

Regarding `CC1(O)C2CC3CC1CC(CN)(C3)C2` (stereo not shown) [Cpd 11, 5-Aminomethyl-2-methyl-adamantan-2-ol], the inhibition at 25 µM lay in the range of 11 to 50%.

With `NC12CC3CC(C1)CC(F)(C3)C2` [Cpd 12], the inhibition at 25 µM lay within 51 to 95%.

In the case of `NC12CC3CC(C1)C(F)C(C3)C2` (stereo not shown) [Cpd 13, 4-Fluoroadamantan-1-amine], the inhibition at 25 µM is 51 to 95%.

For the compound `NC12CC3CC(C1)C(O)C(C3)C2` (stereo not shown) [Cpd 14], the inhibition at 25 µM fell in the range of 11 to 50%.

On to `NC12CC3CC(C1)C(=O)C(C3)C2` [Cpd 15], for which the inhibition at 25 µM was 11 to 50%.

As for `N#CC1C2CC3CC1CC(N)(C3)C2` (stereo not shown) [Cpd 16, 5-Amino-adamantane-2-carbonitrile], the inhibition at 25 µM was in the range of 51 to 95%.

Regarding `NC12CC3CC(C1)C(F)(F)C(C3)C2` [Cpd 17, 4,4-Difluoro-adamantan-1-ylamine], the inhibition at 25 µM lay within 11 to 50%.

With `CC1(F)C2CC3CC1CC(N)(C3)C2` (stereo not shown) [Cpd 18, 4-Fluoro-4-methyl-adamantan-1-ylamine], the inhibition at 25 µM lay in the range of 51 to 95%.

For `NC12CC3CC(C1)C(=S)C(C3)C2` [Cpd 19, 5-Amino-adamantane-2-thione], the inhibition at 25 µM fell in the range of 11 to 50%.

In the case of `NC12CC3CC(C1)C(S)C(C3)C2` (stereo not shown) [Cpd 20, 5-Amino-adamantane-2-thiol], the inhibition at 25 µM was in the range of 11 to 50%.

Consider `NC12CC3CC(C1)C(CF)C(C3)C2` (stereo not shown) [Cpd 21, 4-Fluoromethyl-adamantan-1-ylamine], for which the inhibition at 25 µM is 51 to 95%.

Take `NC12CC3CC(C1)C(=NO)C(C3)C2` [Cpd 23, 5-Amino-adamantan-2-one oxime]: the inhibition at 25 µM is 11 to 50%.

As to `NC12CC3CC(C1)C1(OCCO1)C(C3)C2` [Cpd 24], the inhibition at 25 µM lay in the range of 11 to 50%.

Turning to `COC1C2CC3CC1CC(CN)(C3)C2` (stereo not shown) [Cpd 25, C-(4-Methoxy-adamantan-1-yl)-methylamine], the inhibition at 25 µM was 51 to 95%.

For the compound `N#CC1C2CC3CC1CC(CN)(C3)C2` (stereo not shown) [Cpd 26, 5-Aminomethyl-adamantane-2-carbonitrile], the inhibition at 25 µM was 51 to 95%.

For `O=[N+]([O-])CC12CC3CC(C1)C(O)C(C3)C2` (stereo not shown) [Cpd 27, 5-Nitromethyl-adamantan-2-ol], the inhibition at 25 µM lay in the range of 11 to 50%.

On to `O=[N+]([O-])CC12CC3CC(C1)C(F)C(C3)C2` (stereo not shown) [Cpd 28, 4-Fluoro-1-nitromethyl-adamantane], for which the inhibition at 25 µM lay in the range of 11 to 50%.

For the compound `NC12CC3CC(C1)CC(S)(C3)C2` [Cpd 29], the inhibition at 25 µM is 51 to 95%.

Consider `O=[N+]([O-])C12CC3CC(CC(F)(C3)C1)C2` [Cpd 30, 3-Fluoro-1-nitro-adamantane], for which the inhibition at 25 µM was 1 to 10%.

Turning to `N=C(N)NC12CC3CC(CC(F)(C3)C1)C2` [Cpd 31, N-(3-Fluoro-adamantan-1-yl)-guanidine], the inhibition at 25 µM lay in the range of 11 to 50%.

Consider `COC12CC3CC(CC(N)(C3)C1)C2` [Cpd 32], for which the inhibition at 25 µM was in the range of 1 to 10%.

For `NC12CC3CC(CC(C3)C1O)C2` (stereo not shown) [Cpd 34], the inhibition at 25 µM fell in the range of 51 to 95%.

Regarding `CC1(O)C2CC3CC(C2)CC1(N)C3` (stereo not shown) [Cpd 35, 1-Amino-2-methyl-adamantan-2-ol], the inhibition at 25 µM lay in the range of 11 to 50%.

The record behind these values is patent US8440720B2, “Methods of use of antiviral compounds” (Influmedix, Inc., priority 2009, dated 2013).
